Patent publication US10350271B2, “Lipidated peptides for lowering blood glucose” (USTAV ORGANICKE CHEMIE A BIOCHEMIE AKADEMIE VED CR, V.V.I., priority 2014, dated 2019)
Numbered stars: 1 amine (or outer) side, 2 acyl side, 3 side chain; on linkers, the order of the positions; unused ones are H or OH. Side chains are listed from the residue outwards. Peptide text beside a SMILES is read from it. * marks the point of attachment. TTDA(Palmitoyl) = CCCCCCCCCCCCCCCC(=O)NCCCOCCOCCOCCCN*; Palmitoyl = CCCCCCCCCCCCCCCC(=O)*; Suc = O=C(CCC(=O)[*:2])[*:1]; GABA = NCCCC(=O)O

Experiments:
Wistar rats = assay: Food intake in fasted rats after SC injection; format: in vivo; conditions: overnight fasted rats, compared to controls given vehicle
Method: NMRI mice, C57BL/6 mice, and Wistar rats (AnLab, Prague, Czech Republic) were housed in a temperature of 23° C. and a daily cycle of 12 h light and dark (light from 6:00). They were given ad libitum water and a standard chow diet that contained 25, 9 and 66% of calories of protein, fat and carbohydrate respectively. Energy content of the feed was 3.4 kcal/g (St-1, Mlýn Kocanda, Czech Republic). Db/db mice and their controls (C57BL/6 background) were obtained from Taconic (Denmark), housed under the same conditions as described above, and fed by Altromin (Taconic, Denmark). ZDF-Lepr^fa/Crl, diabetic fa/fa male rats were obtained from Charles River (France), housed under same conditions as described above, and fed with a Purina 5008 diet (IPS Product Supplies Limited, UK). All experiments followed the ethical guidelines for animal experiments and the law of the Czech Republic Nr. 246/1992.
In experiments with C57BL/6 mice or Wistar rats, food intake was measured with overnight fasted animals in individual cages. Food was withdrawn 17 hours prior to injection of lipidated analog of prolactin releasing peptide (PrRP); free access to water was maintained. The administration of either saline, PrRP, or lipidated analogs was performed by SC injection at doses of 1-10 mg/kg (which corresponded to a volume of 0.2 ml/mouse and 0.1 ml/100 g weight of rat). Fifteen minutes after the lipidated analog of prolactin releasing peptide (PrRP) administration, the mice were given pre-weighed food. The food was then weighed every 30 minutes for 5-10 hours. The administration of each dose was performed at least twice, and each group of mice consisted of at least 6 mice.

C57BL/6 mice = assay: Food intake in fasted mice after SC injection; format: in vivo; conditions: 5 mg/kg SC, 45 min after injection
Summary of the method: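 Overnight-fasted animals (food removed 17 h before dosing, water available) in individual cages got saline, PrRP or lipidated PrRP analogs SC at 1-10 mg/kg.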

[1] = target: T1, human PrRP receptor GPR10 (Homo sapiens, UniProt P49683); assay: Competitive binding in CHO cells transfected with human GPR10 (human 125I-PrRP31); conditions: for Ki: CHO cells, human 125I-PrRP31, read-out: Ki, GPR10 human receptor transfected in CHO cells; for % of PrRP31, GPR10 human receptor transfected in CHO cells: affinity relative to PrRP31
T1 construct: host or cells: CHO cells
T1 sequence (P49683 1-370): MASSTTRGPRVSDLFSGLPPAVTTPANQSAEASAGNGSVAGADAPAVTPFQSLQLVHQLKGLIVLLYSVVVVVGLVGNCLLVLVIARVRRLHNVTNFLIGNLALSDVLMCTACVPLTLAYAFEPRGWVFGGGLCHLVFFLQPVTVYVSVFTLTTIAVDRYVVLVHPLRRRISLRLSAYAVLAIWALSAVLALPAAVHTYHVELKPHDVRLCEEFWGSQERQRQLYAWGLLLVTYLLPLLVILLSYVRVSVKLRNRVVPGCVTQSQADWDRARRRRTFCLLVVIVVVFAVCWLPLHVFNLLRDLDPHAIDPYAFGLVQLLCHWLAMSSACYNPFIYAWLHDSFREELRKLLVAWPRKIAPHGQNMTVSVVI
Summary of the method: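 GPR10-transfected CHO cells (40-80 thousand/well) incubated 60 min at room temperature with 5×10^-11 mol·l^-1 human 125I-PrRP31 and unlabeled analog at 10^-11 to 10^-4 mol·l^-1 in Tris binding buffer pH 7.4. Cells solubilized in 0.1 mol/l NaOH, γ-counted; one-site nonlinear regression fit.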

rat PrRP receptor = target: T2, rat PrRP receptor (Rattus norvegicus, UniProt Q64121); assay: Competitive binding in RC-4B/C rat pituitary cells (125I-rat PrRP31); conditions: for Ki: RC-4B/C cells, displacement of 125I-rat PrRP31, read-out: Ki, RC-4B/C rat pituitary cells ^25I-rat PrRP31; for % of PrRP31, RC-4B/C rat pituitary cells: affinity relative to PrRP31
T2 construct: host or cells: RC-4B/C rat pituitary cell line
T2 sequence (Q64121 1-370): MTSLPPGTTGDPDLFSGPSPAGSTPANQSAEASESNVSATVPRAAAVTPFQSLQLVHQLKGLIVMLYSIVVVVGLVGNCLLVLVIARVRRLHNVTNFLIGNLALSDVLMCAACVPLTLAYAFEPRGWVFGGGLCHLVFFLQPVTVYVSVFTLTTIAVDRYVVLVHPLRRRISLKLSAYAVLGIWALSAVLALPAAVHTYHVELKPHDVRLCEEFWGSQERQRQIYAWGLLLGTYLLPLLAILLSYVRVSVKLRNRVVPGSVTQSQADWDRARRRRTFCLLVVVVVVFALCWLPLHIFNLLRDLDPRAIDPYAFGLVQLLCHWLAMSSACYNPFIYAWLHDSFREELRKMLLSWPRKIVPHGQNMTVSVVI
Summary of the method: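 Intact rat pituitary RC-4B/C cells incubated 60 min at room temperature with […] rat 125I-PrRP31 and unlabeled analog (10^−11 to 10^−4 mol·l^−1) in HEPES pH 7.4 buffer. Cell-bound radioactivity γ-counted after NaOH lysis; one-site competition fit.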

SMILES | Food intake in rats (Wistar rats) | Food intake in mice % of saline-treated group (C57BL/6 mice) [%] | Ki [1] [nM] | % of PrRP31, GPR10 human receptor transfected in CHO cells [1] [%] | Ki (rat PrRP receptor) [nM] | % of PrRP31, RC-4B/C rat pituitary cells (rat PrRP receptor) [%]
CCCCCCCCCCCCCCCC(=O)NCCCC[C@H](NC(=O)[C@@H](NC(=O)[C@H](CCC(=O)O)NC(=O)[C@H](CCSC)NC(=O)[C@H](CO)NC(=O)[C@H](Cc1c[nH]cn1)NC(=O)[C@H](CCCNC(=N)N)NC(=O)[C@H](Cc1c[nH]cn1)NC(=O)[C@@H](NC(=O)[C@H](CCCNC(=N)N)NC(=O)[C@@H](N)CO)[C@@H](C)O)[C@@H](C)CC)C(=O)N[C@H](C(=O)N1CCC[C@H]1C(=O)N[C@@H](CC(=O)O)C(=O)N[C@H](C(=O)N[C@@H](CC(N)=O)C(=O)N1CCC[C@H]1C(=O)N[C@@H](C)C(=O)N[C@@H](Cc1c[nH]c2ccccc12)C(=O)N[C@@H](Cc1ccc(O)cc1)C(=O)N[C@@H](C)C(=O)N[C@@H](CO)C(=O)N[C@@H](CCCNC(=N)N)C(=O)NCC(=O)N[C@H](C(=O)N[C@@H](CCCNC(=N)N)C(=O)N1CCC[C@H]1C(=O)N[C@H](C(=O)NCC(=O)N[C@@H](CCCNC(=N)N)C(=O)N[C@@H](Cc1ccccc1)C(N)=O)C(C)C)[C@@H](C)CC)[C@@H](C)CC)[C@@H](C)O [Analog 48] (H-SRTHRHSMEIK(Palmitoyl)TPDINPAWYASRGIRPVGRF-NH2) | significantly reduced | 13 | 6.37 ± 0.78 | 61 |  | 
CCCCCCCCCCCCCCCC(=O)N[C@@H](CCC(=O)N[C@@H](CO)C(=O)N[C@@H](CCCNC(=N)N)C(=O)N[C@H](C(=O)N[C@@H](Cc1c[nH]cn1)C(=O)N[C@@H](CCCNC(=N)N)C(=O)N[C@@H](Cc1c[nH]cn1)C(=O)N[C@@H](CO)C(=O)N[C@@H](CCSC)C(=O)N[C@@H](CCC(=O)O)C(=O)N[C@H](C(=O)N[C@@H](CCCNC(=N)N)C(=O)N[C@H](C(=O)N1CCC[C@H]1C(=O)N[C@@H](CC(=O)O)C(=O)N[C@H](C(=O)N[C@@H](CC(N)=O)C(=O)N1CCC[C@H]1C(=O)N[C@@H](C)C(=O)N[C@@H](Cc1c[nH]c2ccccc12)C(=O)N[C@@H](Cc1ccc(O)cc1)C(=O)N[C@@H](C)C(=O)N[C@@H](CO)C(=O)N[C@@H](CCCNC(=N)N)C(=O)NCC(=O)N[C@H](C(=O)N[C@@H](CCCNC(=N)N)C(=O)N1CCC[C@H]1C(=O)N[C@H](C(=O)NCC(=O)N[C@@H](CCCNC(=N)N)C(=O)N[C@@H](Cc1ccccc1)C(N)=O)C(C)C)[C@@H](C)CC)[C@@H](C)CC)[C@@H](C)O)[C@@H](C)CC)[C@@H](C)O)C(=O)O [Analog 54] | significantly reduced | 14 |  | 57 | 0.5 ± 0.13 | 119
CCCCCCCCCCCCCCCC(=O)NCCCC(=O)NCCCC[C@H](NC(=O)[C@@H](NC(=O)[C@H](CCC(=O)O)NC(=O)[C@H](CCSC)NC(=O)[C@H](CO)NC(=O)[C@H](Cc1c[nH]cn1)NC(=O)[C@H](CCCNC(=N)N)NC(=O)[C@H](Cc1c[nH]cn1)NC(=O)[C@@H](NC(=O)[C@H](CCCNC(=N)N)NC(=O)[C@@H](N)CO)[C@@H](C)O)[C@@H](C)CC)C(=O)N[C@H](C(=O)N1CCC[C@H]1C(=O)N[C@@H](CC(=O)O)C(=O)N[C@H](C(=O)N[C@@H](CC(N)=O)C(=O)N1CCC[C@H]1C(=O)N[C@@H](C)C(=O)N[C@@H](Cc1c[nH]c2ccccc12)C(=O)N[C@@H](Cc1ccc(O)cc1)C(=O)N[C@@H](C)C(=O)N[C@@H](CO)C(=O)N[C@@H](CCCNC(=N)N)C(=O)NCC(=O)N[C@H](C(=O)N[C@@H](CCCNC(=N)N)C(=O)N1CCC[C@H]1C(=O)N[C@H](C(=O)NCC(=O)N[C@@H](CCCNC(=N)N)C(=O)N[C@@H](Cc1ccccc1)C(N)=O)C(C)C)[C@@H](C)CC)[C@@H](C)CC)[C@@H](C)O [Analog 53] (H-SRTHRHSMEIK([GABA-Palmitoyl])TPDINPAWYASRGIRPVGRF-NH2) | significantly reduced | 25 | 9.19 ± 0.96 | 42.5 | 1.26 ± 0.57 | 190
CCCCCCCCCCCCCCCC(=O)NCCCOCCOCCOCCCNC(=O)CCC(=O)NCCCC[C@H](NC(=O)[C@@H](NC(=O)[C@H](CCC(=O)O)NC(=O)[C@H](CCSC)NC(=O)[C@H](CO)NC(=O)[C@H](Cc1c[nH]cn1)NC(=O)[C@H](CCCNC(=N)N)NC(=O)[C@H](Cc1c[nH]cn1)NC(=O)[C@@H](NC(=O)[C@H](CCCNC(=N)N)NC(=O)[C@@H](N)CO)[C@@H](C)O)[C@@H](C)CC)C(=O)N[C@H](C(=O)N1CCC[C@H]1C(=O)N[C@@H](CC(=O)O)C(=O)N[C@H](C(=O)N[C@@H](CC(N)=O)C(=O)N1CCC[C@H]1C(=O)N[C@@H](C)C(=O)N[C@@H](Cc1c[nH]c2ccccc12)C(=O)N[C@@H](Cc1ccc(O)cc1)C(=O)N[C@@H](C)C(=O)N[C@@H](CO)C(=O)N[C@@H](CCCNC(=N)N)C(=O)NCC(=O)N[C@H](C(=O)N[C@@H](CCCNC(=N)N)C(=O)N1CCC[C@H]1C(=O)N[C@H](C(=O)NCC(=O)N[C@@H](CCCNC(=N)N)C(=O)N[C@@H](Cc1ccccc1)C(N)=O)C(C)C)[C@@H](C)CC)[C@@H](C)CC)[C@@H](C)O [Analog 57] (H-SRTHRHSMEIK([Suc-TTDA(Palmitoyl)])TPDINPAWYASRGIRPVGRF-NH2; N-terminus assumed) | significantly reduced | 10 | 3.79 ± 0.46 | 103 |  | 663
CCCCCCCCCCCCCCCC(=O)NCCCOCCOCCOCCCNC(=O)CCC(=O)NCCCC[C@H](NC(=O)[C@@H](NC(=O)[C@H](CCC(=O)O)NC(=O)[C@H](CCSC)NC(=O)[C@H](CO)NC(=O)[C@H](Cc1c[nH]cn1)NC(=O)[C@H](CCCNC(=N)N)NC(=O)[C@H](Cc1c[nH]cn1)NC(=O)[C@@H](NC(=O)[C@H](CCCNC(=N)N)NC(=O)[C@H](CO)NC(=O)CCC(=O)NCCCOCCOCCOCCCNC(=O)CCCCCCCCCCCCCCC)[C@@H](C)O)[C@@H](C)CC)C(=O)N[C@H](C(=O)N1CCC[C@H]1C(=O)N[C@@H](CC(=O)O)C(=O)N[C@H](C(=O)N[C@@H](CC(N)=O)C(=O)N1CCC[C@H]1C(=O)N[C@@H](C)C(=O)N[C@@H](Cc1c[nH]c2ccccc12)C(=O)N[C@@H](Cc1ccc(O)cc1)C(=O)N[C@@H](C)C(=O)N[C@@H](CO)C(=O)N[C@@H](CCCNC(=N)N)C(=O)NCC(=O)N[C@H](C(=O)N[C@@H](CCCNC(=N)N)C(=O)N1CCC[C@H]1C(=O)N[C@H](C(=O)NCC(=O)N[C@@H](CCCNC(=N)N)C(=O)N[C@@H](Cc1ccccc1)C(N)=O)C(C)C)[C@@H](C)CC)[C@@H](C)CC)[C@@H](C)O [Analog 59] ({TTDA(Palmitoyl)-Suc}-SRTHRHSMEIK([Suc-TTDA(Palmitoyl)])TPDINPAWYASRGIRPVGRF-NH2) |  | 23 | 32.4 ± 3.57 | 12 |  | 85
